Laboratory results published in paper PMC10747733, “N-Substituted 2-(Benzenosulfonyl)-1-Carbotioamide Derivatives Exert Antimicrobial and Cytotoxic Effects via Aldehyde Dehydrogenase Pathway: Synthesis, In Silico and In Vitro Studies” (Pharmaceuticals, 2023).
≈ marks a conversion by molar mass, not a printed value.

Key:
[1] = tested on: ALDH1A1; experiment: ALDH1A1 concentration by ELISA in 769-P cells; type: cell-based, human
Protocol: The effect of compounds WZ1–WZ4 on ALDHA1 levels was investigated (Figure 10). The Du145, HepG2 and 769-P cell lines were treated with the calculated IC25 values for each compound.
Selected cell lines, viz HepG2, Du145 and 769-P, were seeded into 6-well plates and incubated for 24 h after seeding with compounds at a concentration equal to IC25. After a further 24 h or 48 h, cells were detached with trypsin and centrifuged. The resulting cell pellet was resuspended in 0.5 mL PBS. The samples were then sonicated, and protein was determined using the Bradford method (Bio-rad; Hercules, CA, USA). Samples were equilibrated to 10 mg/mL of protein, and ALDH1A1 was determined in the samples prepared in this way. ALDH1A1 determination was performed using an ELISA (SEE824Hu; Cloud Clone Corp., Katy, TX, USA), according to the manufacturer’s protocol.

[2] = tested on: Bacillus cereus ATCC 10876; experiment: Broth microdilution antimicrobial activity; type: cell-based; settings: for MBC / MIC: ATCC10876
Description: (§1) Reference strains of microorganisms that came from American Type Culture Collection (ATCC) (Manassas, VA, USA) were used for this study. The representative Gram-positive bacteria were as follows: Staphylococcus aureus ATCC 25923, Staphylococcus aureus ATCC 29213, Staphylococcus aureus ATCC 43300, Staphylococcus epidermidis ATCC 12228, Enterococcus faecalis ATCC 29212, Micrococcus luteus ATCC 10240, Bacillus subtilis ATCC 6633 and Bacillus cereus ATCC 10876. While, those of Gram-negative bacteria were as follows: Bordetella bronchiseptica ATCC 4617, Escherichia coli ATCC 25922, Klebsiella pneumoniae ATCC 13883, Proteus mirabilis ATCC 12453, Salmonella Typhimurium ATCC 14028 and Pseudomonas aeruginosa ATCC 9027. Moreover, the following fungi belonging to yeasts were used: Candida albicans ATCC 10231, Candida albicans ATCC 2091, Candida parapsilosis ATCC 22019, Candida glabrata ATCC 90030 and Candida krusei ATCC 14243.
(§2) The new compounds WZ1–WZ4 were assayed for both antibacterial and antifungal activity using the broth microdilution method in accordance with the European Committee on Antimicrobial Susceptibility Testing (EUCAST) and Clinical and Laboratory Standards Institute (CLSI) guidelines. The microorganisms were grown at 35 °C for 18–24 h on appropriate media (nutrient agar and Sabouraud for bacteria and fungi, respectively) (BioMaxima S.A., Lublin, Poland). Next, microbial suspensions with an optical density of 0.5 McFarland standard scale (in sterile 0.85% NaCl) were prepared. In turn, the tested compounds were initially diluted at 50 mg/mL in dimethyl sulfoxide (DMSO) and the broth microdilution method was used to assess their minimum inhibitory concentrations (MICs). For these studies, selective broth Mueller-Hinton (MH) (BioMaxima S.A., Lublin, Poland) and RPMI (Roswell Park Memorial Institute) 1640 with MOPS (3-(N-Morpholino)propanesulfonic acid) (Sigma-Aldrich Chemicals, St. Louis, MO, USA) were used for bacteria and fungi, respectively. The antimicrobial effect of compounds WZ1–WZ4 was determined in the concentration range from 2000 to 0.98 µg/mL.
(§3) Then, the microbial suspensions were introduced into each well of the microplate and incubated for 18–24 h at 35 °C. […] The reference drugs ciprofloxacin or vancomycin (against bacteria) and nystatin (against fungi) (Sigma-Aldrich Chemicals, St. Louis, MO, USA) were also used. Next, the values of the minimum bactericidal concentration (MBC) and minimum fungicidal concentration (MFC) of WZ1–WZ4 were assessed. For this purpose, the cultures from each MIC determination well were transferred to a suitable solid medium and incubated under appropriate conditions. The lowest concentrations of compounds without microbial growth were read as MBC or MFC. The studies were performed in triplicate and representative data were gathered.
(§4) In turn, the MBC/MIC or MFC/MIC ratios were used to assess bactericidal/fungicidal (MBC/MIC or MFC/MIC ≤ 4) and bacteriostatic/fungistatic (MBC/MIC or MFC/MIC > 4) effect of these compounds [93].

[3] = tested on: Staphylococcus aureus ATCC 29213; experiment: Broth microdilution antimicrobial activity; type: cell-based; settings: Staphylococcus aureus ATCC 29213; for MBC / MIC: ATCC29213
Description: as §1, §2, §3, §4

[4] = tested on: Proteus mirabilis ATCC 12453; experiment: Broth microdilution antimicrobial activity; type: cell-based; settings: for MBC / MIC: ATCC12453
Description: as §1, §2, §3, §4

[5] = tested on: Candida glabrata ATCC 90030; experiment: Broth microdilution antimicrobial activity; type: cell-based; settings: for MFC / MIC: Nakaseomyces glabratus; for MFC: ATCC90030, read-out: MFC; for MIC: ATCC90030, read-out: MIC
Description: as §1, §2, §3, §4

[6] = tested on: Candida krusei ATCC 14243; experiment: Broth microdilution antimicrobial activity; type: cell-based; settings: for MFC / MIC: Pichia kudriavzevii; for MFC: ATCC14243, read-out: MFC; for MIC: ATCC14243, read-out: MIC
Description: as §1, §2, §3, §4

[7] = tested on: Candida albicans ATCC 2091; experiment: Broth microdilution antimicrobial activity; type: cell-based; settings: for MFC: ATCC2091, read-out: MFC; for MIC: ATCC2091, read-out: MIC
Description: as §1, §2, §3, §4

[8] = tested on: Bordetella bronchiseptica ATCC 4617; experiment: Broth microdilution antimicrobial activity; type: cell-based; settings: for MBC / MIC: ATCC4617
Description: as §1, §2, §3, §4

[9] = tested on: Enterococcus faecalis ATCC 29212; experiment: Broth microdilution antimicrobial activity; type: cell-based; settings: Enterococcus faecalis ATCC 29212; for MBC / MIC: ATCC29212; for MBC: read-out: MBC; for MIC: read-out: MIC
Description: as §1, §2, §3, §4

[10] = tested on: Escherichia coli ATCC 25922; experiment: Broth microdilution antimicrobial activity; type: cell-based; settings: for MBC / MIC: ATCC25922
Description: as §1, §2, §3, §4

[11] = tested on: Klebsiella pneumoniae ATCC 13883; experiment: Broth microdilution antimicrobial activity; type: cell-based; settings: for MBC / MIC: ATCC13883
Description: as §1, §2, §3, §4

[12] = tested on: Candida albicans ATCC 10231; experiment: Broth microdilution antimicrobial activity; type: cell-based; settings: for MFC: ATCC10231, read-out: MFC; for MIC: ATCC10231, read-out: MIC
Description: as §1, §2, §3, §4

[13] = tested on: Staphylococcus epidermidis ATCC 12228; experiment: Broth microdilution antimicrobial activity; type: cell-based; settings: for MBC / MIC: ATCC12228
Description: as §1, §2, §3, §4

[14] = tested on: Staphylococcus aureus ATCC 25923; experiment: Broth microdilution antimicrobial activity; type: cell-based; settings: for MBC / MIC: ATCC25923
Description: as §1, §2, §3, §4

[15] = tested on: Candida parapsilosis ATCC 22019; experiment: Broth microdilution antimicrobial activity; type: cell-based; settings: for MFC / MIC: Lodderomyces parapsilosis; for MFC: ATCC22019, read-out: MFC; for MIC: ATCC22019, read-out: MIC
Description: as §1, §2, §3, §4

SMILES: CCCCCCNC(=S)NNS(=O)(=O)c1ccccc1 [WZ3, 2-(Benzenesulfonyl)-N-Hexylhydrazine-1-Carbothioamide]
- ALDH1A1 concentration compared to control ([1]; compound at IC25, 24 h): increase
- MBC/MIC [2]: 1
- MBC [2]: 250 µg/mL (≈ 792 µM)
- MIC [2]: 250 µg/mL (≈ 792 µM)
- MBC [3]: 500 µg/mL (≈ 1580 µM)
- MIC [3]: 500 µg/mL (≈ 1580 µM)
- MBC/MIC [3]: 1
- MBC/MIC [4]: > 2
- MBC [4]: > 2000 µg/mL
- MIC [4]: 1000 µg/mL (≈ 3170 µM)
- MFC/MIC [5]: 1
- MFC [5]: 2000 µg/mL (≈ 6340 µM)
- MIC [5]: 2000 µg/mL (≈ 6340 µM)
- MFC/MIC [6]: 2
- MFC [6]: 1000 µg/mL (≈ 3170 µM)
- MIC [6]: 500 µg/mL (≈ 1580 µM)
- MFC/MIC [7]: 2
- MFC [7]: 1000 µg/mL (≈ 3170 µM)
- MIC [7]: 500 µg/mL (≈ 1580 µM)
- MBC/MIC [8]: > 4
- MBC [8]: > 2000 µg/mL
- MIC [8]: 500 µg/mL (≈ 1580 µM)
- MBC [9]: > 2000 µg/mL
- MIC [9]: 500 µg/mL (≈ 1580 µM)
- MBC/MIC [9]: > 4
- MBC/MIC [10]: > 4
- MBC [10]: > 2000 µg/mL
- MIC [10]: 500 µg/mL (≈ 1580 µM)
- MBC/MIC [11]: > 2
- MBC [11]: > 2000 µg/mL
- MIC [11]: 1000 µg/mL (≈ 3170 µM)
- MFC/MIC [12]: 2
- MFC [12]: 1000 µg/mL (≈ 3170 µM)
- MIC [12]: 500 µg/mL (≈ 1580 µM)
- MBC/MIC [13]: 1
- MBC [13]: 250 µg/mL (≈ 792 µM)
- MIC [13]: 250 µg/mL (≈ 792 µM)
- MBC/MIC [14]: 4
- MBC [14]: 1000 µg/mL (≈ 3170 µM)
- MIC [14]: 250 µg/mL (≈ 792 µM)
- MFC/MIC [15]: 1
- MFC [15]: 2000 µg/mL (≈ 6340 µM)
- MIC [15]: 2000 µg/mL (≈ 6340 µM)

SMILES: CNC(=S)NNS(=O)(=O)c1ccccc1 [WZ4, 2-(Benzenesulfonyl)-N-Methylhydrazine-1-Carbothioamide]
- ALDH1A1 concentration compared to control ([1]; compound at IC25, 24 h): decrease
- ALDH1A1 concentration compared to control ([1]; compound at IC25, 48 h): significant decrease
- MBC/MIC [2]: 2
- MBC [2]: 125 µg/mL (≈ 510 µM)
- MIC [2]: 62.5 µg/mL (≈ 255 µM)
- MBC [3]: > 2000 µg/mL
- MIC [3]: 1000 µg/mL (≈ 4080 µM)
- MBC/MIC [3]: > 2
- MBC/MIC [4]: > 1
- MBC [4]: > 2000 µg/mL
- MIC [4]: > 2000 µg/mL
- MFC/MIC [5]: 4
- MFC [5]: 500 µg/mL (≈ 2040 µM)
- MIC [5]: 125 µg/mL (≈ 510 µM)
- MFC/MIC [6]: 4
- MFC [6]: 2000 µg/mL (≈ 8150 µM)
- MIC [6]: 500 µg/mL (≈ 2040 µM)
- MFC/MIC [7]: 4
- MFC [7]: 1000 µg/mL (≈ 4080 µM)
- MIC [7]: 250 µg/mL (≈ 1020 µM)
- MBC/MIC [8]: > 1
- MBC [8]: > 2000 µg/mL
- MIC [8]: > 2000 µg/mL
- MBC [9]: > 2000 µg/mL
- MIC [9]: 1000 µg/mL (≈ 4080 µM)
- MBC/MIC [9]: > 2
- MBC/MIC [10]: > 1
- MBC [10]: > 2000 µg/mL
- MIC [10]: > 2000 µg/mL
- MBC/MIC [11]: > 1
- MBC [11]: > 2000 µg/mL
- MIC [11]: > 2000 µg/mL
- MFC/MIC [12]: 2
- MFC [12]: 1000 µg/mL (≈ 4080 µM)
- MIC [12]: 500 µg/mL (≈ 2040 µM)
- MBC/MIC [13]: 4
- MBC [13]: 500 µg/mL (≈ 2040 µM)
- MIC [13]: 125 µg/mL (≈ 510 µM)
- MBC/MIC [14]: > 4
- MBC [14]: > 2000 µg/mL
- MIC [14]: 500 µg/mL (≈ 2040 µM)
- MFC/MIC [15]: 8
- MFC [15]: 1000 µg/mL (≈ 4080 µM)
- MIC [15]: 125 µg/mL (≈ 510 µM)
